# Measurements from patent US11512073B2, “Benzimidazole derivatives, pharmaceutical composition comprising the same, and use thereof” (Chongqing University of Arts and Sciences, priority 2020, dated 2022).
# Residues, ends and D or L forms follow the SMILES beside them. *: point of attachment. Cbz = O=C(OCc1ccccc1)*; CH2F = FC*
# Tested on: TNBC cells
# Test: MTT cell viability assay, statements for both TNBC lines
# Assay type: cell-based, Human
# Conditions: Z-VAD-FMK 20 μM with compound 7a 20 μM, 48 h
# Protocol: Compounds were dissolved in a hydrous dimethylsulfoxide (DMSO, Life technologies) to obtain a 50 mM stock solution, which was then added to the culture medium at a concentration range of 6.25-100 μM. […] Z-VAD-FMK was purchased from Selleckchem (Houston, Tex.); The reagents including 3-(4,5-dimethylthiazol-2-yl)-2,5-diphenyltetrazolium bromide (MTT), dimethyl sulfoxide (DMSO), penicillin, streptomycin, propidium iodide (PI) were purchased from Sigma-Aldrich (MO, USA); All the primary antibodies used in this study were from Cell Signaling Technology (MA, USA) and the secondary antibodies were from LI-COR Biosciences (NE, USA).
# Human triple negative breast cancer cell lines MDA-MB-231 and MDA-MB-468 were purchased from the American Type Culture Collection (ATCC, VA, USA). These cells were cultured in high-glucose DMEM (Gibco, USA) supplemented with 10% fetal bovine serum (FBS, Gibco) and 1% penicillin/streptomycin (Gibco) at 37° C. in a humidified incubator containing 5% CO2.
# The antiproliferative activity of compounds was measured with the MTT assay. […] The absorbance value was determined at 570 nm using a microplate reader (Bio-Tek, VT, USA). Data were analyzed by GraphPad Prism 6. […]
smiles,measurement,value
"COC(=O)C[C@H](NC(=O)[C@H](C)NC(=O)[C@@H](NC(=O)OCc1ccccc1)C(C)C)C(=O)CF [Z-VAD-FMK, reference compound] (Cbz-Val-Ala-Asp(OMe)-CH2F)",rescue of compound 7a-induced apoptosis (cell viability),partially rescue cell apoptosis induced by compound 7a
